# Measured values from publication PMC9403976, “Elucidating the path to Plasmodium prolyl-tRNA synthetase inhibitors that overcome halofuginone resistance” (Nature Communications, 2022).
# Several values for one entry are separate records, joined by “and”; a condition that tells them apart may be missing. Equal values may be shown once. Read-outs that look alike come from different tables or passages of the source.
# Key:
# [1] = test system: HFGR-I P. falciparum (elevated proline homeostasis and PfcProRS^L482H); assay: P. falciparum ABS growth assay, SYBR Green, 72 h, HFGR-I parasites; assay type: cell-based, Plasmodium falciparum; details: HFGR-I, listed as Halofuginone (1)
# Procedure, shortened: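 Asexual blood-stage Dd2 parasites, 1% parasitemia/1% hematocrit, RPMI + 0.5% Albumax; triplicate dose-response, 72 h. Readout SYBR Green 1 fluorescence. Controls: 10 μM dihydroartemisinin (kill), no compound (growth). EC50 values determined.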
# [2] = test system: P. falciparum Dd2-2D4 NCP26 selections S1-3; assay: ABS growth assay on bulk populations and clones from NCP26 resistance selections S1-3; assay type: cell-based, Plasmodium falciparum; details: for EC50: Plasmodium falciparum; for Fold-change Resistance: independent experiments
# Description: In short, P. falciparum erythrocytic-stage parasites at 1% parasitemia and 1% hematocrit in RPMI + 0.5% Albumax were seeded at 40 μL/well in 384-well plates with test compounds in triplicate, dose-response format with 10 μM dihydroartemisinin as a kill-control and blank (no compound) wells as a growth-control. […] After 72 h, growth was quantified by measuring fluorescence (Molecular Devices SpectraMax iD5) following SYBR Green 1 staining. Data were analyzed in Excel and plotted in PRISM (V. 8.4.3–9.1.0, GraphPad).
# This cycle was repeated for ~50 generations (~100 days), corresponding to 5–6 cycles of drug pressure.
# Clonal parasites were isolated from each selection flask by limiting dilution of ring stage parasites in 96-well plates to an average of 0.8 and 0.2 parasites per well.
# HsProRS = HsProRS (Homo sapiens, UniProt P07814); assay: TR-FRET ligand displacement assay with tracer MAT379 (CoraFluor-1-Halo and anti-His6 antibody formats); assay type: binding; parameters: made in house; host or cells: E. coli SoluBL-21; details: for TR-FRET dose-response, normalized signal (SI Fig 11): individual replicates
# [3] = Log[inhibitor] (M) -5.000, listed as Halofuginone (1)
# Sequence of HsProRS (P07814 996-1512): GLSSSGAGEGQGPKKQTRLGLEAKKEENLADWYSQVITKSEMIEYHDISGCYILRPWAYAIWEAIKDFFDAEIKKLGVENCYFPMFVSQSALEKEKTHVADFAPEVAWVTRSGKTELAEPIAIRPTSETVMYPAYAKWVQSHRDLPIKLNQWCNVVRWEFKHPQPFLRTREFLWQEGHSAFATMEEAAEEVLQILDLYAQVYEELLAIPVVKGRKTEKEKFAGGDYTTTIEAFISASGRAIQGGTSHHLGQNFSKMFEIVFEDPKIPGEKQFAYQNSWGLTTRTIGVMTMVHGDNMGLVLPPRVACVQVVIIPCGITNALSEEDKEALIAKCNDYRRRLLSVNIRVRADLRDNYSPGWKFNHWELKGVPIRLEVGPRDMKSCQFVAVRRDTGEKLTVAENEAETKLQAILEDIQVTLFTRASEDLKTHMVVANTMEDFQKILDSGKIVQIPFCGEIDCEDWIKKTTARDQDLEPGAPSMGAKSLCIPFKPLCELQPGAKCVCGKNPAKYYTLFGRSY
structure (smiles),measurement,setting,value
O=C(CC1NCCCC1O)Cn1cnc2cc(Br)c(Cl)cc2c1=O (centres unmarked) [Halofuginone],"parasite growth, replicate wells (Fig 1b)",[1]; Log[inhibitor] (M) -5.204,3.00E+00 and 2.00E+00 and 4.00E+00
same,"parasite growth, replicate wells (Fig 1b)",[1]; Log[inhibitor] (M) -5.505,4.00E+00 (2×) and 3.00E+00
same,"parasite growth, replicate wells (Fig 1b)",[1]; Log[inhibitor] (M) -5.806,3.00E+00 (2×) and 4.00E+00
same,"parasite growth, replicate wells (Fig 1b)",[1]; Log[inhibitor] (M) -6.107,6.00E+00 (2×) and 5.00E+00
same,"parasite growth, replicate wells (Fig 1b)",[1]; Log[inhibitor] (M) -6.408,1.70E+01 (2×) and 1.60E+01
same,"parasite growth, replicate wells (Fig 1b)",[1]; Log[inhibitor] (M) -6.709,5.40E+01 and 5.50E+01 (2×)
same,"parasite growth, replicate wells (Fig 1b)",[1]; Log[inhibitor] (M) -7.000,7.70E+01 and 8.00E+01 and 8.50E+01
same,"parasite growth, replicate wells (Fig 1b)",[1]; Log[inhibitor] (M) -7.010,8.50E+01 and 8.60E+01 and 8.30E+01
same,"parasite growth, replicate wells (Fig 1b)",[1]; Log[inhibitor] (M) -7.301,9.80E+01 and 1.03E+02 and 9.90E+01
same,"parasite growth, replicate wells (Fig 1b)",[1]; Log[inhibitor] (M) -7.311,9.50E+01 and 9.00E+01 and 9.10E+01
same,"parasite growth, replicate wells (Fig 1b)",[1]; Log[inhibitor] (M) -7.602,1.01E+02 and 1.03E+02 and 1.05E+02
same,"parasite growth, replicate wells (Fig 1b)",[1]; Log[inhibitor] (M) -7.903,1.04E+02 and 1.03E+02 and 1.06E+02
same,"parasite growth, replicate wells (Fig 1b)",[1]; Log[inhibitor] (M) -8.204,1.05E+02 and 1.07E+02 and 1.03E+02
same,"parasite growth, replicate wells (Fig 1b)",[1]; Log[inhibitor] (M) -8.505,1.06E+02 and 1.04E+02 and 1.02E+02
same,EC50,"[2]; DD2, cell line S1 - Clone A8, read-out: EC50 [nM] mean",0.641 nM
same,EC50,"[2]; DD2, cell line S1 - bulk population, read-out: EC50 [nM] mean",0.951 nM
same,EC50,"[2]; DD2, cell line S2 - Clone A3, read-out: EC50 [nM] mean",0.36 nM
same,EC50,"[2]; DD2, cell line S2 - Clone B9, read-out: EC50 [nM] mean",0.694 nM
same,EC50,"[2]; DD2, cell line S2 - Clone C5, read-out: EC50 [nM] mean",0.439 nM
same,EC50,"[2]; DD2, cell line S2 - bulk population, read-out: EC50 [nM] mean",0.432 nM
same,EC50,"[2]; DD2, cell line S3 - Clone B3, read-out: EC50 [nM] mean",2.51 nM
same,EC50,"[2]; DD2, cell line S3 - Clone B7, read-out: EC50 [nM] mean",2.01 nM
same,EC50,"[2]; DD2, cell line S3 - bulk population, read-out: EC50 [nM] mean",2.56 nM
same,EC50,"[2]; DD2, read-out: EC50 [nM] mean, cell line S3 - Clone B2",2.75 nM
same,Fold-change Resistance,[2]; S1 - Clone A8,0.97 and 0.75 and 1.48
same,Fold-change Resistance,[2]; S2 - Clone B9,0.89 and 1.08
same,Fold-change Resistance,[2]; S2 - Clone C5,0.56 and 0.68
same,Fold-change Resistance,[2]; S3 - Clone B2,3.65 and 3.48
same,Fold-change Resistance,[2]; S3 - Clone B3,3.93 and 2.72 and 3.23
same,Fold-change Resistance,[2]; S3 - Clone B7,2.66 and 3.07 and 3.15
same,normalized TR-FRET signal (Fig 2j),"HsProRS; Halofuginone series, Log[inhibitor] (M) -5.301",4.67E-01 and 4.34E-01 and 5.01E-01
same,normalized TR-FRET signal (Fig 2j),"HsProRS; Halofuginone series, Log[inhibitor] (M) -5.602",6.44E-01 and 5.92E-01 and 5.65E-01
same,normalized TR-FRET signal (Fig 2j),"HsProRS; Halofuginone series, Log[inhibitor] (M) -7.107",1.11E+00 and 9.45E-01 and 9.98E-01
same,Kd,"HsProRS; HsProRS - best Kd, SI Fig 16a, values on -log scale",225 pM
same,"TR-FRET dose-response, normalized signal (SI Fig 11)",HsProRS; [3],1.22E-01 and 1.04E-01 and 9.99E-02
same,"normalized TR-FRET ligand displacement signal, dose-response replicates (SI Fig 6)",HsProRS; [3],8.67E-01 and 9.21E-01 and 8.89E-01
same,"normalized TR-FRET ligand displacement signal, dose-response replicates (SI Fig 6)","HsProRS; Log[inhibitor] (M) -5.258, listed as Halofuginone (1)",9.18E-01 and 9.29E-01 and 9.59E-01
same,"TR-FRET dose-response, normalized signal (SI Fig 11)","HsProRS; Log[inhibitor] (M) -5.301, listed as Halofuginone (1)",2.23E-01 and 2.19E-01 and 2.35E-01
same,"normalized TR-FRET ligand displacement signal, dose-response replicates (SI Fig 6)","HsProRS; Log[inhibitor] (M) -5.517, listed as Halofuginone (1)",9.53E-01 and 1.02E+00 (2×)
same,"TR-FRET dose-response, normalized signal (SI Fig 11)","HsProRS; Log[inhibitor] (M) -5.602, listed as Halofuginone (1)",3.79E-01 and 3.48E-01 and 2.87E-01
same,"normalized TR-FRET ligand displacement signal, dose-response replicates (SI Fig 6)","HsProRS; Log[inhibitor] (M) -5.775, listed as Halofuginone (1)",1.06E+00 and 1.00E+00 and 1.07E+00
same,normalized TR-FRET signal (Fig 2j),HsProRS; Log[inhibitor] (M) -5.903,7.44E-01 and 8.56E-01 and 7.84E-01
same,"TR-FRET dose-response, normalized signal (SI Fig 11)","HsProRS; Log[inhibitor] (M) -5.903, listed as Halofuginone (1)",5.30E-01 and 5.36E-01 and 5.41E-01
same,"normalized TR-FRET ligand displacement signal, dose-response replicates (SI Fig 6)","HsProRS; Log[inhibitor] (M) -6.018, listed as Halofuginone (1)",1.05E+00 and 1.10E+00 and 1.02E+00
same,normalized TR-FRET signal (Fig 2j),HsProRS; Log[inhibitor] (M) -6.204,8.25E-01 and 9.54E-01 and 7.75E-01
same,"TR-FRET dose-response, normalized signal (SI Fig 11)","HsProRS; Log[inhibitor] (M) -6.204, listed as Halofuginone (1)",7.34E-01 and 7.40E-01 and 6.73E-01
same,"normalized TR-FRET ligand displacement signal, dose-response replicates (SI Fig 6)","HsProRS; Log[inhibitor] (M) -6.281, listed as Halofuginone (1)",1.08E+00 and 1.03E+00 and 1.07E+00
same,normalized TR-FRET signal (Fig 2j),HsProRS; Log[inhibitor] (M) -6.505,1.04E+00 and 9.85E-01 and 1.03E+00
same,"TR-FRET dose-response, normalized signal (SI Fig 11)",HsProRS; Log[inhibitor] (M) -6.505,7.32E-01
same,"TR-FRET dose-response, normalized signal (SI Fig 11)","HsProRS; Log[inhibitor] (M) -6.505, listed as Halofuginone (1)",7.86E-01 and 7.92E-01
same,"normalized TR-FRET ligand displacement signal, dose-response replicates (SI Fig 6)","HsProRS; Log[inhibitor] (M) -6.535, listed as Halofuginone (1)",1.04E+00 and 1.03E+00 and 9.64E-01
same,"normalized TR-FRET ligand displacement signal, dose-response replicates (SI Fig 6)","HsProRS; Log[inhibitor] (M) -6.796, listed as Halofuginone (1)",1.04E+00 and 1.03E+00 (2×)
same,normalized TR-FRET signal (Fig 2j),HsProRS; Log[inhibitor] (M) -6.806,9.63E-01 and 9.86E-01 and 9.32E-01
same,"TR-FRET dose-response, normalized signal (SI Fig 11)","HsProRS; Log[inhibitor] (M) -6.806, listed as Halofuginone (1)",8.94E-01 and 8.80E-01 and 8.52E-01
same,"normalized TR-FRET ligand displacement signal, dose-response replicates (SI Fig 6)","HsProRS; Log[inhibitor] (M) -7.056, listed as Halofuginone (1)",1.05E+00 and 1.11E+00 and 1.07E+00
same,"TR-FRET dose-response, normalized signal (SI Fig 11)","HsProRS; Log[inhibitor] (M) -7.107, listed as Halofuginone (1)",9.88E-01 and 8.65E-01 and 9.16E-01
same,"normalized TR-FRET ligand displacement signal, dose-response replicates (SI Fig 6)","HsProRS; Log[inhibitor] (M) -7.319, listed as Halofuginone (1)",1.04E+00 (2×) and 1.02E+00
same,normalized TR-FRET signal (Fig 2j),HsProRS; Log[inhibitor] (M) -7.408,1.05E+00 and 9.28E-01 and 8.93E-01
same,"TR-FRET dose-response, normalized signal (SI Fig 11)","HsProRS; Log[inhibitor] (M) -7.408, listed as Halofuginone (1)",9.10E-01 and 9.40E-01 and 9.15E-01
same,"normalized TR-FRET ligand displacement signal, dose-response replicates (SI Fig 6)",HsProRS; Log[inhibitor] (M) -7.553,1.10E+00
same,"normalized TR-FRET ligand displacement signal, dose-response replicates (SI Fig 6)","HsProRS; Log[inhibitor] (M) -7.553, listed as Halofuginone (1)",1.16E+00
same,normalized TR-FRET signal (Fig 2j),HsProRS; Log[inhibitor] (M) -7.709,9.59E-01 and 9.28E-01 and 9.82E-01
same,"TR-FRET dose-response, normalized signal (SI Fig 11)","HsProRS; Log[inhibitor] (M) -7.709, listed as Halofuginone (1)",9.34E-01 (2×) and 9.38E-01
same,"normalized TR-FRET ligand displacement signal, dose-response replicates (SI Fig 6)","HsProRS; Log[inhibitor] (M) -7.796, listed as Halofuginone (1)",1.10E+00 and 1.04E+00 and 1.03E+00
same,normalized TR-FRET signal (Fig 2j),HsProRS; Log[inhibitor] (M) -8.010,9.03E-01 and 1.00E+00 and 9.95E-01
same,"TR-FRET dose-response, normalized signal (SI Fig 11)","HsProRS; Log[inhibitor] (M) -8.010, listed as Halofuginone (1)",9.18E-01 and 9.71E-01 and 9.55E-01
same,"normalized TR-FRET ligand displacement signal, dose-response replicates (SI Fig 6)","HsProRS; Log[inhibitor] (M) -8.097, listed as Halofuginone (1)",1.01E+00 and 1.03E+00 and 1.08E+00
same,normalized TR-FRET signal (Fig 2j),HsProRS; Log[inhibitor] (M) -8.311,9.63E-01 and 1.06E+00 and 1.04E+00
